# Results from paper PMC8531085, “Proton Pump Inhibitors Inhibit PHOSPHO1 Activity and Matrix Mineralisation In Vitro” (Calcified Tissue International, 2021).
# Where “and” joins values, the source holds several entries; their conditions need not be identical. Equal values may be shown once. Entries after “also recorded” stand apart in the source; their conditions may differ.
# Experiments:
# [1] = target: T1, Recombinant human PHOSPHO1 (Homo sapiens, UniProt Q8TCT1); assay: PHOSPHO1 phosphatase assay (BIOMOL Green, β-glycerol phosphate); format: biochemical; conditions: for Inhibition of PHOSPHO1 activity (in words): all concentrations tested (0-100 µM); for IC50: recombinant human PHOSPHO1 50 ng, 0-100 µM, 2.5 mM β-glycerol phosphate, read-out: IC50, inhibition of PHOSPHO1 activity
# T1 construct: made in house
# T1 sequence (Q8TCT1 1-267): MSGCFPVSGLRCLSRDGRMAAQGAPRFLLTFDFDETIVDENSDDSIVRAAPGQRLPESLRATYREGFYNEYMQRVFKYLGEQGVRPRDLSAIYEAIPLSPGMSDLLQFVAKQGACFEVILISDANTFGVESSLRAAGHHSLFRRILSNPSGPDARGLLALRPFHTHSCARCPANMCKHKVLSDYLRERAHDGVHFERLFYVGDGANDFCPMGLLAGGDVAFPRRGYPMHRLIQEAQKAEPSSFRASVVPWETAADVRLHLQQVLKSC
# Description: Recombinant human PHOSPHO1 (50 ng) was generated as previously described and incubated with varying concentrations of the aforementioned PPIs and […] in experimental assay buffer (20 mM Tris, 2 mM MgCl2 & 25 μg/ml BSA) at 37 °C for 15 min. Using the BIOMOL® Green assay (Enzo, Exeter, UK), standards (0-2 nM) and samples were then incubated with 2.5 mM β-glycerol phosphate for 30 min at 37 °C with gentle agitation. The reaction was stopped using 100 μl BIOMOL® Green and after being left for 30 min at room temperature, the absorbance was read using spectrophotometry at 630 nm. […] Using the BIOMOL® Green assay, standards (0-2 nM) and samples were then incubated with 0.5 mM p-nitrophenyl phosphate (pNPP) for 30 min at 37 °C with gentle agitation. The reaction was stopped using 100 μl BIOMOL® Green and after being left for 30 min at room temperature, the absorbance was read using spectrophotometry at 630 nm.
# [2] = target: T1, Recombinant human PHOSPHO1; design: method as in PMID 17227223; conditions: non-competitive; cited from earlier work
# developing chick embryos = system: developing chick embryos; design: method as in PMID 20053388; conditions: administration to developing chick embryos; cited from earlier work
# [3] = system: Primary calvarial osteoblasts; assay: Primary osteoblast matrix mineralisation (Alizarin red, 28 days); format: cell-based, mice
# Description: Primary calvarial osteoblasts were obtained from 4-day-old wild-type C57Bl/6 mice. Primary osteoblasts were isolated by sequential enzyme digestion of excised calvarial bones using a four-step process as has previously been described [1 mg/ml collagenase type II in Hanks’ balanced salt solution (HBSS) for 10 min; 1 mg/ml collagenase type II in HBSS for 30 min; 4 mM EDTA for 10 min; 1 mg/ml collagenase type II in HBSS for 30 min]. The first digest was discarded and the cells were re-suspended in growth medium consisting of a-MEM (Invitrogen, Paisley, UK) supplemented with 10% (v/v) FBS and 1% gentamycin (Invitrogen). Osteoblasts were seeded at a density of 1 × 10^4 cells/cm^2 and grown to confluency at which point 2 mM β-glycerophosphate and 50 µg/ml ascorbic acid was added along with a PPI (0–50 µM) as described in the results. Media was changed every 2–3 days for the duration of the 28-day experiments. After 28 days, primary cell cultures were fixed in 4% paraformaldehyde for 5 min at room temperature. Cell monolayers were stained with aqueous 2% (w/v) Alizarin red solution for 5 min at room temperature. The bound stain was solubilised in 10% cetylpyridinium chloride and the optical density of the resultant eluted solution measured by spectrophotometry at 570 nm.
# recombinant human TNAP = target: T2, recombinant human TNAP (Homo sapiens, UniProt P05186); assay: TNAP phosphatase assay (BIOMOL Green, pNPP); format: biochemical; conditions: all concentrations tested (0-100 µM)
# T2 construct: purchased R&D Systems
# T2 sequence (P05186 18-524): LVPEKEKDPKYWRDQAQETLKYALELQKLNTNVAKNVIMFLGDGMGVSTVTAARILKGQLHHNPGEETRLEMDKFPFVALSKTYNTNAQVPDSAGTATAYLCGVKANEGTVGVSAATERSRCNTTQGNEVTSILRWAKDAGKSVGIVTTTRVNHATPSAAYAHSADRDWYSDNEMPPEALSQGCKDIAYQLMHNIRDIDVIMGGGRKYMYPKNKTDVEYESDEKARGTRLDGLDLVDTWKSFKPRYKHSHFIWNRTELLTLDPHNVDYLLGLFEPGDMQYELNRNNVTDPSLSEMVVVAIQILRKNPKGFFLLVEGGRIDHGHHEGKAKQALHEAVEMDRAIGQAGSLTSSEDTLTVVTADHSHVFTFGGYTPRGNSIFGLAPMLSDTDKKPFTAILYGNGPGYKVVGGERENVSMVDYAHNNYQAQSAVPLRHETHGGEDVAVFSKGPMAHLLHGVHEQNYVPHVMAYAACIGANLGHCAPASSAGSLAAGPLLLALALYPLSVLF
# Description: Recombinant human PHOSPHO1 (50 ng) was generated as previously described and incubated with varying concentrations of the aforementioned PPIs and H2RAs in experimental assay buffer (20 mM Tris, 2 mM MgCl2 & 25 µg/ml BSA) at 37 °C for 15 min. Using the BIOMOL® Green assay (Enzo, Exeter, UK), standards (0-2 nM) and samples were then incubated with 2.5 mM β-glycerol phosphate for 30 min at 37 °C with gentle agitation. The reaction was stopped using 100 µl BIOMOL® Green and after being left for 30 min at room temperature, the absorbance was read using spectrophotometry at 630 nm. For TNAP, 2 ng recombinant human TNAP (R&D Systems, Abington, UK), was incubated with varying concentrations of the aforementioned PPIs and H2RAs in experimental assay buffer (1 M diethylamine hydrochloride, 1 mM MgCl2 and 20 µM ZnCl2). Using the BIOMOL® Green assay, standards (0-2 nM) and samples were then incubated with 0.5 mM p-nitrophenyl phosphate (pNPP) for 30 min at 37 °C with gentle agitation. The reaction was stopped using 100 µl BIOMOL® Green and after being left for 30 min at room temperature, the absorbance was read using spectrophotometry at 630 nm.
# osteoblast MV = conditions: cited from earlier work
# [4] = system: tissue non-specific alkaline phosphatase (TNAP); design: method as in PMID 17227223; conditions: cited from earlier work
# osteoblasts = system: osteoblasts; design: method as in PMID 23937530; conditions: cited from earlier work
# rodents = system: rodents; design: method as in PMID 11589371, PMID 26229922; conditions: rodents administered the drug; cited from earlier work
# healthy subjects = conditions: short-term treatment; cited from earlier work
SMILES,Inhibition of PHOSPHO1 activity (in words) [1],Matrix mineralisation (Alizarin red) ([3]; 10 µM),Inhibition of TNAP activity (in words) (recombinant human TNAP),Ability of osteoblasts to mineralise their matrix (osteoblasts),IC50 [1],also measured
CN/C(=N/CCSCc1nc[nH]c1C)NC#N [cimetidine],no inhibitory effects; also recorded: no inhibition,,,,,
Cc1c(OCC(F)(F)F)ccnc1C[S+]([O-])c1nc2ccccc2[nH]1 (centres unmarked) [lansoprazole],,significantly decreased matrix mineralisation,did not inhibit,decreased the ability of osteoblasts to mineralise their matrix,2.77 µM,Inhibition of recombinant human PHOSPHO1 activity [2]: over 70%; Mineralisation of leg and wing long bones (developing chick embryos): completely inhibited mineralisation; Matrix mineralisation (Alizarin red) ([3]; 5 µM): significantly decreased matrix mineralisation; Inhibition of osteoblast MV calcification (osteoblast MV): 57%; Mineralisation of MVs isolated from osteoblasts (osteoblast MV): impairs their mineralisation; Effect on TNAP activity [4]: no effect
COc1ccc2[nH]c([S+]([O-])Cc3ncc(C)c(OC)c3C)nc2c1 (centres unmarked) [omeprazole],,significantly inhibited matrix mineralisation,did not inhibit,decreased the ability of osteoblasts to mineralise their matrix,2.8 µM,Bone mineral content and BMD (rodents): reduced bone mineral content and BMD; Effect on calcium absorption (healthy subjects): not found to have inhibitory effects
CNC(=C[N+](=O)[O-])NCCSCc1ccc(CN(C)C)o1 [ranitidine],no inhibitory effects; also recorded: no inhibition,,,,,
CNC(=C[N+](=O)[O-])NCCSCc1csc(CN(C)C)n1 [nizatidine],no inhibitory effects; also recorded: no inhibition,,,,,
COc1ccnc(C[S+]([O-])c2nc3ccc(OC(F)F)cc3[nH]2)c1OC (centres unmarked) [pantoprazole],,not sufficient to inhibit matrix mineralisation,did not inhibit,,19.3 µM,Matrix mineralisation (Alizarin red) ([3]; 5 µM): not sufficient to inhibit matrix mineralisation; Matrix mineralisation (Alizarin red) ([3]; 50 µM): significant decrease in matrix mineralisation
NC(N)=Nc1nc(CSCCC(N)=NS(N)(=O)=O)cs1 [famotidine],no inhibitory effects; also recorded: no inhibition,,,,,
COc1ccc2nc([S@@+]([O-])Cc3ncc(C)c(OC)c3C)[nH]c2c1 [esomeprazole],,significantly inhibited matrix mineralisation,did not inhibit,decreased the ability of osteoblasts to mineralise their matrix,0.73 µM and 0.726 µM,
